Laboratory results: paper PMC9031804, “The Peptide-Drug Conjugate TH1902: A New Sortilin Receptor-Mediated Cancer Therapeutic against Ovarian and Endometrial Cancers” (Cancers, 2022)

Tests used:
[1] = tested on: A2780 ovarian cancer xenografts; experiment: A2780 ovarian cancer xenograft tumor growth; format: in vivo, human tumor in female athymic nude mice; conditions: single agent 10 mg/kg IV bi-weekly
Text: Animals were obtained from Charles River Laboratories, Inc. and allowed to acclimate for 5 days before experiments. Female CD-1 nude mice (Crl:CD1-Foxn1^nu, 4–6 weeks old; ES-2) or athymic nude mice (Crl:NU(NCr)-Foxn1^nu, 4–6 weeks old; SKOV3, A2780, AN3-CA) were used for the xenograft tumor models. Mice were maintained in a pathogen-free environment and handled in accordance with the Guidelines of the Canadian Council on Animal Care. Animal protocols were approved by the Institutional Animal Care and Use Committee of Université du Québec à Montréal (0620-C1R1-897-0621).
Tumor xenografts were established by subcutaneous inoculation of 5 × 10^6 cells (ES-2) or 7 × 10^6 cells (SKOV3) in 150 µL of HBSS; other xenografts were established by subcutaneous inoculation of 5 × 10^6 cells (A2780) or 2 × 10^6 cells (AN3-CA) in 150 µL of HBSS/Matrigel (50:50). All cells were injected into the right flanks of immunodeficient mice under light isoflurane anesthesia. The injection schedules and doses of injected substances are detailed in the figures. Briefly, when palpable ES-2, SKOV3 or AN3-CA tumors reached a volume of ~100 mm^3, mice were treated weekly with either vehicle, docetaxel (3.75 or 15 mg/kg) or TH1902 (8.75 or 35 mg/kg) at equivalent docetaxel amounts via intravenous (IV) tail vein injection. Note that three cycles of 15 mg/kg docetaxel is the maximum tolerated dose in mice and that 35 mg/kg TH1902 contains the same quantity of docetaxel (bis-linked to the peptide). In A2780 xenografts, when palpable tumors reached a volume of ~250 mm^3, mice were treated with either vehicle, paclitaxel (10 mg/kg, IV), carboplatin (40 mg/kg, intraperitoneal (IP)), docetaxel (10 mg/kg, IV) or TH1902 (23 mg/kg, IV) bi-weekly as single agents or once on Day-0 as combinations with carboplatin. For combination treatments, both taxanes and TH1902 were injected 1 h following carboplatin administrations at the doses previously described. Injectable solutions were prepared as follows: TH1902 was solubilized at 10 mg/mL in 10% Tween-80 in D5W (pH 4.3, w/v) then further diluted with D5W; docetaxel was solubilized at 25 mg/mL in ethanol and Tween-80 (50/50, v/v) then further diluted with D5W; paclitaxel was solubilized at 25 mg/mL in ethanol and Cremophor EL (50/50, v/v) then further diluted in saline; carboplatin was solubilized at 50 mg/mL in water then further diluted in a solution of 30% PEG400 and 5% Tween-80 in D5W (w/v); vehicle composition and preparation mimicked highest dose of TH1902 preparation. Tumor growth was monitored by two-dimensional measurements taken with an electronic caliper and tumor volume was calculated according to the following formula: tumor volume (mm^3) = π/6 × length × width^2. Data are expressed as mean ± SEM and were analyzed using GraphPad Prism software.
Figure 8 Effects of TH1902 and carboplatin combinations on A2780 ovarian cancer xenografts. A2780 cells were subcutaneously implanted in the flanks of athymic nude mice. Tumor volume measurements following bi-weekly administrations of (A) vehicle, docetaxel, TH1902, paclitaxel or carboplatin as single agents, or (B) administered once in combination using the same dosage as described in the methods section. Colored dots below indicate drug treatments for all groups. Data are represented as mean ± SEM (n = 5 mice/group).

[2] = ref [38]; cited from earlier work
Text: Taxanes, mainly paclitaxel and docetaxel, are well-known microtubule stabilizers used in various cancer including ovarian and endometrial cancer first-line therapies in the last thirty years. […] Here, the new chemical entity TH1902 is distinct from the docetaxel molecule as it selectively exploits SORT1’s internalization properties to trigger cell apoptosis in ES-2 and ...

[3] = tested on: SORT1 in ES-2 ovarian cancer cells; experiment: Competition of TH19P01-Alexa^488 uptake, ES-2; format: cell-based, human; conditions: 10 µM neurotensin, 2 h, n = 4
Method: (§1) Cells were grown in 12-well plates in complete media for 24 h. Where required, cells were transiently transfected with 100 nM of siRNA (either a scrambled, control siRNA, or one that was directed against a particular mRNA) for 24 h using Lipofectamine 2000. Cells were next washed with PBS and then incubated in HBSS without phenol red for 2 h at 37 °C in the presence or absence of 200 nM Alexa^488-labeled TH19P01 peptide. Alexa^488-labeled TH19P01 peptide uptake was also measured with or without competition by an excess of unlabeled TH19P01 peptide (50 µM) or neurotensin (10 µM) during a 2 h uptake before washing with serum-free media. Cell fluorescence was evaluated in the FL1 channel using a C6 Accuri flow cytometer (BD Biosciences, Mississauga, ON, Canada).
(§2) Figure 4 Internalization of TH19P01-Alexa^488 peptide by SORT1 in ovarian cancer cell lines. […] (B) Uptake of TH19P01-Alexa^488 into two ovarian cancer cell lines was measured in the presence of excess concentrations of substrates known to bind to SORT1 (50 µM TH19P01 and 10 µM neurotensin). […] Results are expressed as normalized RFU according to measurements of control wells. […]

[4] = tested on: SORT1 in SKOV3 ovarian cancer cells; experiment: Competition of TH19P01-Alexa^488 uptake, SKOV3; format: cell-based, human; conditions: 10 µM neurotensin, 2 h, n = 4
Method: as §1, §2

Row | Molecule | Tumor growth inhibition [1] [%] | Tumor progression, Size Increase (x-Fold Day-0) ([1]; vehicle group endpoint, n = 5 mice/group) | Water solubility [2] | TH19P01-Alexa^488 uptake with neurotensin [3] | TH19P01-Alexa^488 uptake with neurotensin [4]
1 | CC(=O)O[C@H]1C(=O)[C@@]2(C)[C@H]([C@H](OC(=O)c3ccccc3)[C@]3(O)C[C@H](OC(=O)[C@H](O)[C@@H](NC(=O)c4ccccc4)c4ccccc4)C(C)=C1C3(C)C)[C@]1(OC(C)=O)CO[C@@H]1C[C@@H]2O [Paclitaxel, paclitaxel] | 36 | 4.21 | very poor water solubility |  | 
2 | neurotensin: known ligand of SORT1, synthesized in-house |  |  |  | reduced | reduced
